Experimental findings from US12653894B2, “Degradation of FAK or FAK and ALK by conjugation of FAK and ALK inhibitors with E3 ligase ligands and methods of use” (DANA-FARBER CANCER INSTITUTE, INC., priority 2018, dated 2026) are described below.

“Also recorded” adds a separate entry of the source.

Test [1] concerns the target T1, FAK (Homo sapiens, UniProt Q05397). As to the kind of experiment: FAK degradation by immunoblot in H3122 cells. The following applies: 10 nM to 1000 nM, 16 hours (compound 10) or 24 hours (compounds 1, 9). Details: endogenous in cells; host or cells: H3122. In kind it is cell-based.
The target in test [2] is T1, FAK. The experiment in a line: In vivo FAK degradation in PA-TU-8988T xenograft tumors. Set-up: endogenous in cells; host or cells: PA-TU-8988T. The following applies: nude mice, 10 to 50 mpk intraperitoneal, three consecutive days, 4 hours after final treatment. On the procedure: (§1) Mice were treated for three consecutive days and assessments were performed 4 hours after the third and final treatment.
(§2) PA-TU-8988T cells were implanted into the flanks of nude mice. After tumors had formed, mice were treated with indicated FAK degraders for three consecutive days via intraperitoneal administration and sacrificed 4 hours after the third and final treatment. Tumors and livers were harvested and lysed in RIPA on ice for 60 minutes and lysates were clarified by centrifugation. Immunoblotting for FAK was performed to evaluate changes in protein levels upon FAK degrader administration. All samples were run with equal total protein content and immunoblotting was performed using antibodies that detect total FAK protein as well as α-Tubulin as a loading control. Fluorescently labelled infrared secondary antibodies that enable detection using an Odyssey® CLx Imager was employed to evaluate protein levels.

In test [3] the target is T2, ALK (Homo sapiens, UniProt Q9UM73). The experiment in a line: ALK degradation by immunoblot in H3122 cells. In kind it is cell-based. Set-up: endogenous in cells; host or cells: H3122; the other entry of the earlier key: EML4 (Q9HC35, Echinoderm microtubule-associated protein-like 4). The following applies: 10 nM to 1000 nM, 16 hours (compound 10) or 24 hours (compounds 1, 9).
Target sequence in this assay (Q9UM73 with tags, fused parts or gaps): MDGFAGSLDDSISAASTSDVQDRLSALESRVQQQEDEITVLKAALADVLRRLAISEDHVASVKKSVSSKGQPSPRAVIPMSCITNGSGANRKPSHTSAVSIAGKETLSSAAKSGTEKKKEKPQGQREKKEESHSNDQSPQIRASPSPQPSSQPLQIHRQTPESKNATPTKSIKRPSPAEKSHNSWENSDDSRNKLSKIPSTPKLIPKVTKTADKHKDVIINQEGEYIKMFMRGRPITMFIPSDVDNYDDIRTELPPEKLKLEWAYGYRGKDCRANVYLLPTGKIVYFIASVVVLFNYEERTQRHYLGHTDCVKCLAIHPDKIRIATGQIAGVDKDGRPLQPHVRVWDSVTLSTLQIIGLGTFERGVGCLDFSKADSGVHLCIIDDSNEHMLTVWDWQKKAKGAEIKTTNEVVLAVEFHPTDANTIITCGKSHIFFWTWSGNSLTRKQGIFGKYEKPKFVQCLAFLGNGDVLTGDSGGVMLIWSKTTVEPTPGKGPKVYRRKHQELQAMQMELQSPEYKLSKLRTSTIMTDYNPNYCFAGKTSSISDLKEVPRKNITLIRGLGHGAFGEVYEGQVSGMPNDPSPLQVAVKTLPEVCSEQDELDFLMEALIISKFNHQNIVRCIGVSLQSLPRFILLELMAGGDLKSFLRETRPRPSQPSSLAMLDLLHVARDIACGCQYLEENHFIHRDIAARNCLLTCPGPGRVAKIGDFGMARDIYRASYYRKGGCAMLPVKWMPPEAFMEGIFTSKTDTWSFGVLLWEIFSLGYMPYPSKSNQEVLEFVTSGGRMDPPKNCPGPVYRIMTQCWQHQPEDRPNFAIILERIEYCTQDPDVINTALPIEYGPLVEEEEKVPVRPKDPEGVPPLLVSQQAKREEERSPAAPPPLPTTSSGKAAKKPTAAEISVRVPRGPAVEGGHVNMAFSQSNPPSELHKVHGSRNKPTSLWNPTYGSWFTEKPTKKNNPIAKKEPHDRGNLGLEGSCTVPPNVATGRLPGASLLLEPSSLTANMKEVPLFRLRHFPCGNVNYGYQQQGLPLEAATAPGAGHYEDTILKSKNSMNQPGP
Target sequence in this assay (Q96SW2 whole entry partner): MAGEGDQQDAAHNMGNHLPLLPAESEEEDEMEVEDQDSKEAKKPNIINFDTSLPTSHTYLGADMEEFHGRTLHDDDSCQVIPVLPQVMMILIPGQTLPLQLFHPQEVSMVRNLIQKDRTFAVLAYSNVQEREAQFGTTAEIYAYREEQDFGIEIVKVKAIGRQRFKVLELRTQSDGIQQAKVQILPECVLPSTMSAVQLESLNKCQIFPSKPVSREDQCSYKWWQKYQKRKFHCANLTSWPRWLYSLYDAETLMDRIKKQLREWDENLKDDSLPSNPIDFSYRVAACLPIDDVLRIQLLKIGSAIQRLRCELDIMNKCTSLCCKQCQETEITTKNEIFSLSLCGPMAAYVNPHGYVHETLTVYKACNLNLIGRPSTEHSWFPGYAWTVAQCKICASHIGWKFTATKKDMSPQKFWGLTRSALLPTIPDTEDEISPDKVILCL

Test [4] concerns the target T3, FAK (Mus musculus, UniProt P34152).
T3 construct: from tissue; host or cells: liver of nude mice
The experiment in a line: In vivo FAK degradation in mouse livers. Conditions: nude mice, 10 to 50 mpk intraperitoneal, three consecutive days, 4 hours after final treatment. As for the experimental part:
as §1, §2

The target in test [5] is T1, FAK. As to the kind of experiment: FAK degradation by immunoblot in PA-TU-8988T cells. In kind it is cell-based. Details: endogenous in cells; host or cells: PA-TU-8988T. The following applies: PA-TU-8988T cells, 4 hours; for Degradation of FAK protein (in words): 0.1 nM to 1000 nM, immunoblot; for inhibition at 0.01 µM / inhibition at 0.1 µM: PaTu 8988t, total FAK protein, vs DMSO; for inhibition at 0.01 µM: 10 nM, read-out: Degradation at 10 nM; for inhibition at 0.1 µM: 100 nM, read-out: Degradation at 100 nM. On the procedure:
(§3) Immunoblotting for FAK was performed to evaluate changes in protein levels upon FAK degrader treatment. All samples were run with equal total protein content and immunoblotting was performed using antibodies that detect total FAK protein as well as GAPDH or α-Tubulin as a loading control. Fluorescently labelled infrared secondary antibodies that enable detection using an Odyssey® CLx Imager was employed to evaluate protein levels.
FAK degraders were evaluated in immunoblot assays to determine the effective dose required to achieve FAK protein loss. Immunoblots for FAK protein were normalized relative to the loading control and percent degradation was evaluated compared to DMSO treatment.

In test [6] the target is T2, ALK. The experiment in a line: In vitro kinase assay (Life Technologies), ALK. The following applies: ATP concentration = Km, duplicate; read-out: Biochemical IC50 ALK. Details: purchased Life Technologies. On the procedure:
(§4) In vitro kinase assays with inventive compound 13 and VS-4718 were performed by Life Technologies™ in duplicate at an ATP concentration=Km for each indicated kinase. The results are summarized in Table 2 and indicate that inventive compound 13 maintained potent FAK activity, with improved activity on ALK as compared to VS-4718.

A further test concerns kinome. As to the kind of experiment: KINOMEscan competition binding assays. Conditions: 1000 nM, compared to VS-4718. As for the experimental part: KINOMEscan® competition binding assays with inventive compound 13 and VS-4718 were performed by DiscovrX at 1000 nM. […] Additionally, despite the observed activity of compound 13 on ALK, degradation of ALK with compound 9 was not observed (FIG. 6B).

Test [7] has as its target T1, FAK. The experiment in a line: Rescue of compound 9-induced FAK degradation in PA-TU-8988T cells after pre-treatment. The class given is cell-based. The following applies: pre-treatment 2 hours (0.5 μM carfilzomib, 1.0 μM MLN4924, 10 μM lenalidomide, 10 μM compound 13), then 10 nM compound 9 for 4 hours. Set-up: endogenous in cells; host or cells: PA-TU-8988T. On the procedure: as §3, with “PA-TU-8988T cells were treated with FAK degraders or indicated inhibitors for four hours at the indicated doses. After four hours, PA-TU-8988T cells were lysed in radioimmunoprecipitation assay (RIPA) buffer (Thermo Scientific™) on ice for 60 minutes and lysates were clarified by centrifugation. Immunoblotting” for “Immunoblotting”

Test [8] has as its target T1, FAK. The experiment in a line: In vitro kinase assay (Life Technologies), FAK. The following applies: ATP concentration = Km, duplicate; read-out: Biochemical IC50 FAK. On the procedure:
as §4

T1 sequence (Q05397 whole entry): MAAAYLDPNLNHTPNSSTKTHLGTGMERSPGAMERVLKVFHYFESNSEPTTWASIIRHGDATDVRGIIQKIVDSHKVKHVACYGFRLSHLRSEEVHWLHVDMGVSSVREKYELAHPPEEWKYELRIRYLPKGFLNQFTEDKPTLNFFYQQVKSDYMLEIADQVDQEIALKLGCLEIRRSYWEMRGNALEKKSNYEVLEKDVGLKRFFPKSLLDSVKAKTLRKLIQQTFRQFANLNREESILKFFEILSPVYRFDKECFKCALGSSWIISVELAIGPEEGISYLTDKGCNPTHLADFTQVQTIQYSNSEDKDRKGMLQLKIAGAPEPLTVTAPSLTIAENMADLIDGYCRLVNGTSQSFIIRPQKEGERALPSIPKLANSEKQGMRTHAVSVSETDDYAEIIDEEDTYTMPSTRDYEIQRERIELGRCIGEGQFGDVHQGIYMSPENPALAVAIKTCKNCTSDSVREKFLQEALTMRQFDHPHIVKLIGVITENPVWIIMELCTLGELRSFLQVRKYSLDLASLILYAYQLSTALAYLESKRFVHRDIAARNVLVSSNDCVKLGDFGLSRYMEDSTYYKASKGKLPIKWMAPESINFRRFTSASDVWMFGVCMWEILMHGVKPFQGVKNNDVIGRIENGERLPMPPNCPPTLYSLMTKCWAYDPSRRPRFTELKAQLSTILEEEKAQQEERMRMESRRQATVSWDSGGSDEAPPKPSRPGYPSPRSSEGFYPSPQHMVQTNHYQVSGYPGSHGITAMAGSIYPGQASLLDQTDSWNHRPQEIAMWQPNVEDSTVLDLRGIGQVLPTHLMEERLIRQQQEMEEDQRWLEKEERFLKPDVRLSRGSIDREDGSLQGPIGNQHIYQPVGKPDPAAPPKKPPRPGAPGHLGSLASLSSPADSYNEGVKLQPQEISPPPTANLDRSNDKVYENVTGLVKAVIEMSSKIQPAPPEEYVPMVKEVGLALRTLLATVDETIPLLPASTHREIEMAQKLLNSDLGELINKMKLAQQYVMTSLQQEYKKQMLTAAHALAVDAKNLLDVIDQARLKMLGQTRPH
T3 sequence (P34152 whole entry): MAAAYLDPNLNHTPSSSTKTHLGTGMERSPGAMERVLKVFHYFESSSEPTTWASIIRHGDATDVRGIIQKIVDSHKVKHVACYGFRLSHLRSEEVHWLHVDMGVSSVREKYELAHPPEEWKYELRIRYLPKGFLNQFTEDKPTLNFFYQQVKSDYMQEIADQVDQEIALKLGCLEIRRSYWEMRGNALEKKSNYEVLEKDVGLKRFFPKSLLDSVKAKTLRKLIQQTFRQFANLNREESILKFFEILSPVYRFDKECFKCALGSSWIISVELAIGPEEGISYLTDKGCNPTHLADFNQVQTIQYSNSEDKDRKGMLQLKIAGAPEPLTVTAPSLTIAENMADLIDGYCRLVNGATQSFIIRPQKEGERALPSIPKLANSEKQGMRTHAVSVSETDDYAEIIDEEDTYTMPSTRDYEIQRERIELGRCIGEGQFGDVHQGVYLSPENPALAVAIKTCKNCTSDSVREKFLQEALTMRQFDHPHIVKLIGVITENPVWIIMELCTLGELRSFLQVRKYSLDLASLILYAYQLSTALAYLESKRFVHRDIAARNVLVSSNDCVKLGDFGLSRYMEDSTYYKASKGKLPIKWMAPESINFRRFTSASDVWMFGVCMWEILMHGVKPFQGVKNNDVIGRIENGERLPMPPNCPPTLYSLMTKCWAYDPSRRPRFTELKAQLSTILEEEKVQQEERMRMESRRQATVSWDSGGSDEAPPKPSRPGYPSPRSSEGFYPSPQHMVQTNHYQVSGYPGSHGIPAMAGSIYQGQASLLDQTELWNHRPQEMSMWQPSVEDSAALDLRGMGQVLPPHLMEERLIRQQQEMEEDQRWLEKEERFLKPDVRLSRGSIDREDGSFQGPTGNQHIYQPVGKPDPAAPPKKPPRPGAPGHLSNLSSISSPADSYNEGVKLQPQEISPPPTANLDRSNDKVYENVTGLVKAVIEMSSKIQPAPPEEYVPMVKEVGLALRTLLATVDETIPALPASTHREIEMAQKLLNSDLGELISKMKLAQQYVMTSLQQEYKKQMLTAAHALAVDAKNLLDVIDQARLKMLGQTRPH

For `CNC(=O)c1ccccc1Nc1cc(Nc2cc(C)c(C3CCN(CCCCCCNC(=O)COc4cccc5c4C(=O)N(C4CCC(=O)NC4=O)C5=O)CC3)cc2OC(C)C)ncc1C(F)(F)F` (centres unmarked) [Compound 9, 2-((2-((4-(1-(6-(2-((2-(2,6-dioxopiperidin-3-yl)-1,3-dioxoisoindolin-4-yl)oxy)acetamido)hexyl)piperidin-4-yl)-2-isopropoxy-5-methylphenyl)amino)-5-(trifluoromethyl)pyridin-4-yl)amino)-N-methylbenzamide], the “Degradation of FAK protein in H3122 cells (in words)” value at FAK [1] is “pronounced degradation of FAK protein”. Also, the “Degradation of FAK protein in PA-TU-8988T xenograft tumors” value at FAK [2] was “pronounced degradation of FAK protein”. Further, the “Degradation of ALK protein in H3122 cells (in words)” value at ALK [3] is “do not show degradation of ALK; also recorded: not observed”. Moreover, on FAK [4], the “Degradation of FAK protein in mouse livers” value was “pronounced degradation of FAK protein”. On FAK [5], the “Degradation of FAK protein (in words)” value was “rapid and pronounced degradation of FAK protein”; the inhibition at 0.01 µM is 85 to 100%; the inhibition at 0.1 µM was in the range of 85 to 100%.
With `CNC(=O)c1ccccc1Nc1cc(Nc2cc(C)c(C3CCNCC3)cc2OC(C)C)ncc1C(F)(F)F` [Compound 13], the IC50 on ALK [6] turned out to be 26.3 nM. In the test with kinome, the Kinome-wide selectivity result was “improved kinome-wide selectivity”. Moreover, at FAK [7], the “Rescue of FAK degradation induced by compound 9” value was “rescued the degradation induced by compound 9”. Further, at FAK [5], the “Degradation of FAK protein (in words)” value is recorded as “did not induce degradation of FAK protein”, the inhibition at 0.01 µM lay within 0 to 24% and the inhibition at 0.1 µM was in the range of 0 to 24%. Also, the IC50 at FAK [8] is 21 nM.
